Values of other authors in US20180193305A1, “CROMOLYN COMPOSITIONS FOR TREATMENT OF CHRONIC COUGH DUE TO IDIOPATHIC PULMONARY FIBROSIS” (Patara Pharma, LLC, priority 2016, published 2018).
Like-named read-outs stand apart in the source and are kept apart here.

Details: in vivo

In the case of `O=C(O)c1cc(=O)c2c(OCC(O)COc3cccc4oc(C(=O)O)cc(=O)c34)cccc2o1` [cromolyn sodium, disodium 5,5′-(2-hydroxypropane-1,3-diyl)bis(oxy)bis(4-oxo-4H-chromene-2-carboxylate)], the Oral bioavailability is listed as about 1% and the Oral bioavailability (listed as cromolyn) is listed as “about 1%”.
